Tests used:
Thromboxane A2 receptor = target: T1, Thromboxane A2 receptor (Homo sapiens, UniProt P21731)
T1 sequence (P21731 whole entry): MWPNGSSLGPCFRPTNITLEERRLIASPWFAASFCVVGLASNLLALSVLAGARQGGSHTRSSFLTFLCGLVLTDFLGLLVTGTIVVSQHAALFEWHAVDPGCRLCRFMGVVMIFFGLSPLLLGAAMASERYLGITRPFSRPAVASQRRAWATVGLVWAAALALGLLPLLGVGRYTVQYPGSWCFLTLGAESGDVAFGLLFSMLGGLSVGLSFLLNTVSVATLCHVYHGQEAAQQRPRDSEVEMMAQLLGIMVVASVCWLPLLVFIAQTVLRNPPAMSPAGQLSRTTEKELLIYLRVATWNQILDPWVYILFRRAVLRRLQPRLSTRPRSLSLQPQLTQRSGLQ

Mus musculus [1] = species: Mus musculus; type: functional, organism-based, BALB/c
Rattus norvegicus [2] = species: Rattus norvegicus; test: animal or person; type: functional; conditions: ip
[3] = target: T2, Histamine H4 receptor (Mus musculus) (UniProt Q91ZY2)
T2 sequence (whole entry): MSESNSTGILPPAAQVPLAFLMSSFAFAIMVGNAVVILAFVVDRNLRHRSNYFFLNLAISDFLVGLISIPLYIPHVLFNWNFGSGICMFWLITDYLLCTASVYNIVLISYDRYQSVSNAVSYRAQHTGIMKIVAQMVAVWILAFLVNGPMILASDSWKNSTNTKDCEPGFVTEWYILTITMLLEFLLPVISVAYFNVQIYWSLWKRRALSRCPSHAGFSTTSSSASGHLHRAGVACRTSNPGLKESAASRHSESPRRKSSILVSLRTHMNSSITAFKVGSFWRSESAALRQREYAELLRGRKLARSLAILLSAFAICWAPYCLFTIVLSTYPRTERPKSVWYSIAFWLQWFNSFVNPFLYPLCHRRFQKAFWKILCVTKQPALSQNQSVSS

Histamine H4 receptor [4] = target: T3, Histamine H4 receptor (Homo sapiens, UniProt Q9H3N8); conditions: HEK293
Rattus norvegicus [5] = species: Rattus norvegicus; conditions: in vivo, ip, 30 umol/kg
Histamine H3 receptor [6] = target: Histamine H3 receptor (Rattus norvegicus, UniProt Q9QYN8)
Histamine H2 receptor = Histamine H2 receptor (Homo sapiens, UniProt P25021)
Vasopressin V1a receptor = Vasopressin V1a receptor (Homo sapiens, UniProt P37288)
[7] = target: T4, 5-hydroxytryptamine receptor 2C (Homo sapiens, UniProt P28335)
T4 sequence (P28335 whole entry): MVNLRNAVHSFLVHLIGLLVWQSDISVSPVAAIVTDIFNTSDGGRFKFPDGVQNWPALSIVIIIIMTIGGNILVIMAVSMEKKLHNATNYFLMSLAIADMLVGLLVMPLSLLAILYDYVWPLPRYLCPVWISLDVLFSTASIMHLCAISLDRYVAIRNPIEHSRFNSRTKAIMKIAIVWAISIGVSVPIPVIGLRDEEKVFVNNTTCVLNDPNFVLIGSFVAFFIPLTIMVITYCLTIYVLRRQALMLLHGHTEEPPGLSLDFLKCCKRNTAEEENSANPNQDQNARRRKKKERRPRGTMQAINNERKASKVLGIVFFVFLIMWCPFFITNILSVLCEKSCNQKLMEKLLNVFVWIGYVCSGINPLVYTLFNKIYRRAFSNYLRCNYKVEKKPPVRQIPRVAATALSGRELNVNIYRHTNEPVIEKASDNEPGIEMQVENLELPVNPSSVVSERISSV

in vivo [8] = conditions: Sprague-Dawley, rat, po, 10 mg/kg
in vivo [9] = conditions: Sprague-Dawley, rat, po, 10 mg/kg; remark: listed apart in the source
Histamine H4 receptor [10] = target: T3, Histamine H4 receptor; test: biochemical; type: cell-based, HEK293
Histamine H1 receptor = Histamine H1 receptor (Homo sapiens, UniProt P35367)
in vivo [11] = conditions: Sprague-Dawley, rat, ip, 10 mg/kg
[12] = target: Histamine H4 receptor (Rattus norvegicus) (UniProt Q91ZY1)
Mus musculus [13] = species: Mus musculus; test: animal or person; type: functional; conditions: CD-1(ICR), ip
in vivo [14] = conditions: Sprague-Dawley, rat, ip, 10 mg/kg; remark: listed apart in the source
Rattus norvegicus [15] = species: Rattus norvegicus; conditions: in vivo, ip, 100 umol/kg
in vitro = conditions: Sprague-Dawley, rat, plasma
in vivo [16] = conditions: Sprague-Dawley, rat, ip, 10 mg/kg; remark: listed apart in the source
in vivo [17] = conditions: Sprague-Dawley, rat, ip, 10 mg/kg; remark: listed apart in the source
Substance-K receptor = target: T5, Substance-K receptor (Homo sapiens, UniProt P21452)
T5 sequence (P21452 whole entry): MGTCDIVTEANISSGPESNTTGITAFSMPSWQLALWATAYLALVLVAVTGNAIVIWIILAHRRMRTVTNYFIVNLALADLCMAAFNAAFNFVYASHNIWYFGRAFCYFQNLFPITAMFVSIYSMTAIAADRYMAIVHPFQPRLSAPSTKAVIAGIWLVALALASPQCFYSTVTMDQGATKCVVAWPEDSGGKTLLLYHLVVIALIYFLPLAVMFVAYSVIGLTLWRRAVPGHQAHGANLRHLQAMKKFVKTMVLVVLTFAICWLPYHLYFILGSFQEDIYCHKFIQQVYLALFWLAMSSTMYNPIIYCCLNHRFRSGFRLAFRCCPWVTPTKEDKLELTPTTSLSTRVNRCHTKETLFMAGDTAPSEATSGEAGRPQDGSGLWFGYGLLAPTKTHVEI

[18] = target: T6, C-C chemokine receptor type 1 (Homo sapiens, UniProt P32246)
T6 sequence (P32246 whole entry): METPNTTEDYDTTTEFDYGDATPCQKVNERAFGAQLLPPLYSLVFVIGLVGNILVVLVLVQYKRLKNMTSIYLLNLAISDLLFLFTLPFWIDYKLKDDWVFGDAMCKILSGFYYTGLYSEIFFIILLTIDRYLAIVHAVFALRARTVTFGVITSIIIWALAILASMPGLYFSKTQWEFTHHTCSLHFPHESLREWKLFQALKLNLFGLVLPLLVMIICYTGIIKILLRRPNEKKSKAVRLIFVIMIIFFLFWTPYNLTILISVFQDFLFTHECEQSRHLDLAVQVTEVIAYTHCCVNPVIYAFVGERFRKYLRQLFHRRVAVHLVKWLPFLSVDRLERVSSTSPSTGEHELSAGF

Mus musculus [19] = species: Mus musculus; conditions: CD-1(ICR), in vivo, ip, 0.3 umol/kg
Histamine H3 receptor [20] = target: Histamine H3 receptor (Homo sapiens, UniProt Q9Y5N1)
Histamine H4 receptor [21] = target: Histamine H4 receptor (Rattus norvegicus, UniProt Q91ZY1); test: biochemical; type: cell-based, HEK293
in vivo [22] = conditions: Sprague-Dawley, rat, po, 10 mg/kg; remark: listed apart in the source
in vivo [23] = conditions: Sprague-Dawley, rat, po, 10 mg/kg; remark: listed apart in the source
[24] = target: Small conductance calcium-activated potassium channel protein 1 (Homo sapiens, UniProt Q92952)
[25] = target: 5-hydroxytryptamine receptor 2B (Homo sapiens, UniProt P41595); type: functional
[26] = target: T4, 5-hydroxytryptamine receptor 2C; remark: listed apart in the source
[27] = target: T7, Muscarinic acetylcholine receptor M5 (Homo sapiens, UniProt P08912)
T7 sequence (P08912 whole entry): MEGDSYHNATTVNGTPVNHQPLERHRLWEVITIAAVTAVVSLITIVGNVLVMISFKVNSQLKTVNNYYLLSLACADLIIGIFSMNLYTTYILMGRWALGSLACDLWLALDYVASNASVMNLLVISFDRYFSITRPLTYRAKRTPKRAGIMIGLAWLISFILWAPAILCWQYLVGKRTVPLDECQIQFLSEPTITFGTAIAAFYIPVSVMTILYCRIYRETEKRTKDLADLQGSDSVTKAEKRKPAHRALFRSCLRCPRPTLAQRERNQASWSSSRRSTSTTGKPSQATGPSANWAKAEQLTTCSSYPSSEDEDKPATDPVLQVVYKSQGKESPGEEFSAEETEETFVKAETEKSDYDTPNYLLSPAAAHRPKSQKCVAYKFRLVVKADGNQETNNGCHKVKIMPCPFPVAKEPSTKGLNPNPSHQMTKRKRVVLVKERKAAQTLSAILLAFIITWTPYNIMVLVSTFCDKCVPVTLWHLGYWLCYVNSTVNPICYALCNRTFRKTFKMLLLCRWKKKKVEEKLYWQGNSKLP

Chain of Histamine H2 receptor (P25021 whole entry): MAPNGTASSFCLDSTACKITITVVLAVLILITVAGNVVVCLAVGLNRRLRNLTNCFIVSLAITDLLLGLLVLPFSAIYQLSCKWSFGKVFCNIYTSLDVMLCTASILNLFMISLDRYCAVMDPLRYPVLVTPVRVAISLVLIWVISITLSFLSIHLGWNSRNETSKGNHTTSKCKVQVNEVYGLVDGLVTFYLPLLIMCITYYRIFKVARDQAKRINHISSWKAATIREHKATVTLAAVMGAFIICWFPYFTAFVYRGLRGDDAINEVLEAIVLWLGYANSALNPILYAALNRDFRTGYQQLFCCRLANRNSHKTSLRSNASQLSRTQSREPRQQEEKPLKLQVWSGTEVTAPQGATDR
Chain of 5-hydroxytryptamine receptor 2B (P41595 whole entry): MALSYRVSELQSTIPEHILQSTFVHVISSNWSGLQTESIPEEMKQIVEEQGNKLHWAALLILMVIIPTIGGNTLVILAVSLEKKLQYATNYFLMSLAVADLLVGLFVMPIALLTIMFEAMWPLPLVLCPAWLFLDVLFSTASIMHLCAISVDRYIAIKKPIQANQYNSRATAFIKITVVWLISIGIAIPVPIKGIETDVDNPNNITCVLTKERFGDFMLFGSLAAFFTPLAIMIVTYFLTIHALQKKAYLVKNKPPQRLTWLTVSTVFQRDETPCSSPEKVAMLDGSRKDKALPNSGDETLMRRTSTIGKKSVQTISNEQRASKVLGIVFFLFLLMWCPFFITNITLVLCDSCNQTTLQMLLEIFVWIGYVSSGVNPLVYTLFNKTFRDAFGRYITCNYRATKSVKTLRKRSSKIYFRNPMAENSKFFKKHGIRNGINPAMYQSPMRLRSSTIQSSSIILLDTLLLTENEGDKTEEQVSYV
Chain of Small conductance calcium-activated potassium channel protein 1 (Q92952 whole entry): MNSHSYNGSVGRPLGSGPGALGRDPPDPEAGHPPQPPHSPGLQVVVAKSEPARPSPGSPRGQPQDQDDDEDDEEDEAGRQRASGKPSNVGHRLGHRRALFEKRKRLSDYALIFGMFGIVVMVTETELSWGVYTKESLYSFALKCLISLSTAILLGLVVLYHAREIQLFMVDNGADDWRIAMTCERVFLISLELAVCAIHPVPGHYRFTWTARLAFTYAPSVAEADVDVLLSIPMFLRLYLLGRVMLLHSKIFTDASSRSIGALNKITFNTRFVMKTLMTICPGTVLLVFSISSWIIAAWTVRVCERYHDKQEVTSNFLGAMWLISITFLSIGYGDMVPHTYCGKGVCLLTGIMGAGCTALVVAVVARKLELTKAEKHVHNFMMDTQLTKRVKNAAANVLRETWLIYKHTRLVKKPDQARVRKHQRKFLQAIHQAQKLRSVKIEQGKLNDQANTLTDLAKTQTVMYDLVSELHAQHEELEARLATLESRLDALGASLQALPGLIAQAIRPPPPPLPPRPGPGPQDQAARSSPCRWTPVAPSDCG
T3 sequence (Q9H3N8 whole entry): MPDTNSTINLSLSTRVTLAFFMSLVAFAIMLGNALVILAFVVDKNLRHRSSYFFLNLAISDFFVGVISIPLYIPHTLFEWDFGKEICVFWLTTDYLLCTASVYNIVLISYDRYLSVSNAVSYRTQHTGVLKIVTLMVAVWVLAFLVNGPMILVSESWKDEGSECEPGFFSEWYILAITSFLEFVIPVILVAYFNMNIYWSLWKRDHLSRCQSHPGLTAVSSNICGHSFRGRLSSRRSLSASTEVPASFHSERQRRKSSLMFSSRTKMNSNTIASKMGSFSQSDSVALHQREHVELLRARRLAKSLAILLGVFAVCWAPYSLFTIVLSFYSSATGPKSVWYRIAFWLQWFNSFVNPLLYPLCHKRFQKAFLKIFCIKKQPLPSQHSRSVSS
Chain of Vasopressin V1a receptor (P37288 whole entry): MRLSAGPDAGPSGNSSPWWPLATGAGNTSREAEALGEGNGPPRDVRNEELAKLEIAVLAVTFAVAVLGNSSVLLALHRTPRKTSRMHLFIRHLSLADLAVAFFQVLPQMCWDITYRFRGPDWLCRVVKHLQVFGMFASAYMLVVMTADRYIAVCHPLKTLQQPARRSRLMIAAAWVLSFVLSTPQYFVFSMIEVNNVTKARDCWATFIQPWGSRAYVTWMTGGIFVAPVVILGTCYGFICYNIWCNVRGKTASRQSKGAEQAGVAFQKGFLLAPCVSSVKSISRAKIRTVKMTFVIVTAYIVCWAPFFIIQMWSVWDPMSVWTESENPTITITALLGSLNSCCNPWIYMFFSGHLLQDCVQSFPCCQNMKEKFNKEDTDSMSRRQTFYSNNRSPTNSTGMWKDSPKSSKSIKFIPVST
Chain of Histamine H3 receptor (Homo sapiens, UniProt Q9Y5N1) (Q9Y5N1 whole entry): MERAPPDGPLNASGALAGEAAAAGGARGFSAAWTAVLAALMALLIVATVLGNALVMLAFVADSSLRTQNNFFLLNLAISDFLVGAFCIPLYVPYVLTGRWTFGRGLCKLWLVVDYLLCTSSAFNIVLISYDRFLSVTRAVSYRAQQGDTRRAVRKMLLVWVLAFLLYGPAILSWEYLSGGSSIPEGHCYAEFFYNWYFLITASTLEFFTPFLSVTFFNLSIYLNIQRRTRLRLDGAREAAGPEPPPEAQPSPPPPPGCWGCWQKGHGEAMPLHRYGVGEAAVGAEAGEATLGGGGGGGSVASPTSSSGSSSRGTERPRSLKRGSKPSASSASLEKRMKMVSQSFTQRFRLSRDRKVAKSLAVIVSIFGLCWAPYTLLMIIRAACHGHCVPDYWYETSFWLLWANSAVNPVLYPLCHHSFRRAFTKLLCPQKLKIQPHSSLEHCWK
Chain of Histamine H1 receptor (P35367 whole entry): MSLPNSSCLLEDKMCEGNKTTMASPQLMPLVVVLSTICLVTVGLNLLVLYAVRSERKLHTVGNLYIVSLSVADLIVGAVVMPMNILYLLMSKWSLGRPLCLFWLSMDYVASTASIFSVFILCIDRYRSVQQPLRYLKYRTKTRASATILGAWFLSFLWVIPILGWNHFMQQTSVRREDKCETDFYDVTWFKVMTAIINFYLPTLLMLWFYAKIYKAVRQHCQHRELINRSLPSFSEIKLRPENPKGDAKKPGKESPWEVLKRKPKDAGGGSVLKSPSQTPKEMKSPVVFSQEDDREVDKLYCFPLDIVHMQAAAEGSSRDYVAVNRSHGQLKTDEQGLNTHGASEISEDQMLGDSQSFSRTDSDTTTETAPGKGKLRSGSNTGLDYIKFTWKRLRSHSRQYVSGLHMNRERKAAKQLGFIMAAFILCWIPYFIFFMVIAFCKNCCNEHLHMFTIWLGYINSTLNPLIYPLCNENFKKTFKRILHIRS
Chain of Histamine H4 receptor (Rattus norvegicus, UniProt Q91ZY1) (Q91ZY1 whole entry): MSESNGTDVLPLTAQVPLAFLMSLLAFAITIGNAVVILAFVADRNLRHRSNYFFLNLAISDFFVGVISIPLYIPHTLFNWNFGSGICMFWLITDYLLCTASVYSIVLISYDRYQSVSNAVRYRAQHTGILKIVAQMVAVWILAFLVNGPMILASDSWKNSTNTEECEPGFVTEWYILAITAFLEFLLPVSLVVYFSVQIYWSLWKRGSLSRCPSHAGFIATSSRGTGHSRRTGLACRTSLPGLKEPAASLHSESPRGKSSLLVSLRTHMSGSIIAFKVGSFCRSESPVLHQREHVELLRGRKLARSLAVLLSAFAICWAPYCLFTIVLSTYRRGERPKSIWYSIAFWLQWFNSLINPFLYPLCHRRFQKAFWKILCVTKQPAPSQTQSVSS
Chain of Histamine H4 receptor (Rattus norvegicus) (Q91ZY1 whole entry): as above
Chain of Histamine H3 receptor (Rattus norvegicus, UniProt Q9QYN8) (Q9QYN8 whole entry): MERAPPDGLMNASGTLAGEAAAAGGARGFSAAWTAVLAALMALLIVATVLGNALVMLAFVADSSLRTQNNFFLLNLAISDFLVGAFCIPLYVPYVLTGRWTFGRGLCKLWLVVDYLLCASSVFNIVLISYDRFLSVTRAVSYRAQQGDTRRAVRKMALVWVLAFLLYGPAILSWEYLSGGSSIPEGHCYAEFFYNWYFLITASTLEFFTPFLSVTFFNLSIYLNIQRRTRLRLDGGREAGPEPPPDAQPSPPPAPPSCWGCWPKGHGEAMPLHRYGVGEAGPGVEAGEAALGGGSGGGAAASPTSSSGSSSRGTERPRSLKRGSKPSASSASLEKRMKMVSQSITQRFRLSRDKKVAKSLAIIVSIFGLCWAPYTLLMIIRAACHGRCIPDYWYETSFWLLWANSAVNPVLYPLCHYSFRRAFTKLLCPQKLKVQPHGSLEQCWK

`CCCCC[C@H](O)/C=C/[C@H]1C2COC(C2)[C@@H]1C/C=C\CCCC(=O)O` (some centres not stated) showed an IC50 (Thromboxane A2 receptor) of 37 nM and a Ki (Thromboxane A2 receptor) of 16 nM.
Molecule `Nc1nc2c(c(N3CCNCC3)n1)CCC1=C2[C@@H]2CCCC[C@@H]2O1` (relative stereo) has an IC50 (Mus musculus [1]) of 125 µmol/kg, an ED50 (Rattus norvegicus [2]) of 42 µmol/kg and a pKb [3] of 8.2. For the same molecule, the pKb (Histamine H4 receptor [4]) was 8.33, the Cp (Rattus norvegicus [5]) was 610 ng/mL and the Ki (Histamine H3 receptor [6]) was 13.5 nM. It also gave a Ki (Histamine H2 receptor) greater than 9120 nM, an IC50 (Vasopressin V1a receptor) of 3.9 nM and a Ki (Vasopressin V1a receptor) of 2.4 nM. The IC50 [7] was 11700 nM, the Tmax (in vivo [8]) was 1.5 h and the Cmax (in vivo [9]) was 300 nM. It also gave a Ki (Histamine H4 receptor [10]) of 5.75 nM, a Ki (Histamine H1 receptor) of 3550 nM and a half-life (in vivo [11]) of 4.7 h. The pKb [12] was 8.3, the ED50 (Mus musculus [13]) was 0.36 µmol/kg and the bioavailability (in vivo [14]) was 72%. For the same molecule, the Cp (Rattus norvegicus [15]) was 2900 ng/mL, the fraction unbound (in vitro) was 0.41 and the Cmax (in vivo [16]) was 1730 nM. For the same molecule, the Tmax (in vivo [17]) was 0.25 h, the IC50 (Substance-K receptor) was 5.7 nM and the Ki (Substance-K receptor) was 3.1 nM. It also gave an IC50 [18] of 0.087 nM, a Ki [18] of 0.043 nM and a Cp (Mus musculus [19]) of 15 ng/mL. The Ki (Histamine H3 receptor [20]) was 933 nM, the Ki (Histamine H4 receptor [21]) was 3.39 nM and the bioavailability (in vivo [22]) was 26%. The half-life (in vivo [23]) was 3.7 h.
Work on `CC(C)C[C@@H]1NC(=O)[C@H](C)NC(=O)[C@H]([C@@H](C)O)NC(=O)[C@H](CCC(=O)O)NC(=O)[C@@H]2CCCN2C(=O)[C@H](C)NC(=O)[C@H](CCCCN)NC(=O)[C@@H]2CSSC[C@@H](C(=O)N[C@@H](CCC(N)=O)C(=O)N[C@@H](CCC(N)=O)C(=O)N[C@@H](Cc3cnc[nH]3)C(N)=O)NC(=O)[C@H](CCCNC(=N)N)NC(=O)[C@H](CCCNC(=N)N)NC(=O)[C@H](C)NC(=O)[C@H](CSSC[C@H](N)C(=O)N[C@@H](CC(N)=O)C(=O)N2)NC1=O` [APAMIN] yielded an IC50 [24] of 0.014 nM and a Ki [24] of 0.0068 nM.
Work on `CN1CCN(C(=O)c2cc3cc(Cl)ccc3[nH]2)CC1` [JNJ-7777120] yielded a Ki (Histamine H2 receptor) greater than 8510 nM.
`COc1cc(CC(C)N)c(OC)cc1I` (racemic) showed an IC50 [25] of 3.5 nM and a Ki [25] of 3.5 nM.
Work on `COc1cc(OC)c(C(=O)CCCCN2CCC3(CC2)NC(=O)NC3=O)cc1NS(=O)(=O)c1ccc(C(F)(F)F)cc1` [RS-102,221] yielded an IC50 [26] of 8.3 nM and a Ki [26] of 3.9 nM.
For `C[N+]1(C)CCC(OC(=O)C(c2ccccc2)c2ccccc2)CC1` [4-DAMP], the IC50 [27] was 0.83 nM and the Ki [27] was 0.42 nM.
